According to PubChem BioAssay AID1963437 (Molecular Pharmacology Branch, DTP, NCI, 2024):

Test system: OVCAR-8 complex spheroid, growth inhibition
Experiment: Anticancer human tumor OVCAR-8 cell line growth inhibition [Asc];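 note: spheroids exposed to agents for 7 days before readout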;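 for viability, T/C: percent viability relative to DMSO vehicle wells taken as 100%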
Conditions: for IC50: curve of first compound; for viability, T/C: stronger effect = lower value
Summary of the method: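 Tumor cells were grown as complex spheroids with human endothelial cells (HUVEC) and human mesenchymal stem cells as stroma. Agents were tested alone and in combination, in half-log steps down from the clinical Cmax, or from 10 microM where Cmax was unknown.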

[1] = second compound 0.00316 µM, first compound 0.0316 µM
[2] = second compound 0.00316 µM, first compound 0.1 µM
[3] = second compound 0.00316 µM, first compound 0.316 µM
[4] = second compound 0.00316 µM, first compound 1 µM
[5] = second compound 0.01 µM, first compound 0.0316 µM
[6] = second compound 0.01 µM, first compound 0.1 µM
[7] = second compound 0.01 µM, first compound 0.316 µM
[8] = second compound 0.01 µM, first compound 1 µM
[9] = second compound 0.0316 µM, first compound 0.0316 µM
[10] = second compound 0.0316 µM, first compound 0.1 µM
[11] = second compound 0.0316 µM, first compound 0.316 µM
[12] = second compound 0.0316 µM, first compound 1 µM
[13] = second compound 0.1 µM, first compound 0.0316 µM
[14] = second compound 0.1 µM, first compound 0.1 µM
[15] = second compound 0.1 µM, first compound 0.316 µM
[16] = second compound 0.1 µM, first compound 1 µM
[17] = second compound 0.316 µM, first compound 0.0316 µM
[18] = second compound 0.316 µM, first compound 0.1 µM
[19] = second compound 0.316 µM, first compound 0.316 µM
[20] = second compound 0.316 µM, first compound 1 µM
[21] = second compound 1 µM, first compound 0.0316 µM
[22] = second compound 1 µM, first compound 0.1 µM
[23] = second compound 1 µM, first compound 0.316 µM
[24] = second compound 1 µM, first compound 1 µM
[25] = second compound 0.00316 µM, first compound 0.00316 µM
[26] = second compound 0.00316 µM, first compound 0.01 µM
[27] = second compound 0.01 µM, first compound 0.00316 µM
[28] = second compound 0.01 µM, first compound 0.01 µM
[29] = second compound 0.0316 µM, first compound 0.00316 µM
[30] = second compound 0.0316 µM, first compound 0.01 µM
[31] = second compound 0.1 µM, first compound 0.00316 µM
[32] = second compound 0.1 µM, first compound 0.01 µM
[33] = second compound 0.316 µM, first compound 0.00316 µM
[34] = second compound 0.316 µM, first compound 0.01 µM
[35] = second compound 1 µM, first compound 0.00316 µM
[36] = second compound 1 µM, first compound 0.01 µM

For C=CC(=O)N1CCN(c2nc(=O)n(-c3c(C)ccnc3C(C)C)c3nc(-c4c(O)cccc4F)c(F)cc23)C(C)C1 (stereo unspecified) + CNC(C)C(=O)NC1CN(S(=O)(=O)c2cccc(S(=O)(=O)N3CCC4CCC(C(=O)NC(c5ccccc5)c5ccccc5)N4C(=O)C(NC(=O)C(C)NC)C3)c2)CCC2CCC(C(=O)NC(c3ccccc3)c3ccccc3)N2C1=O, the IC50 (second compound 0.00316 µM) was over 10000 nM, the IC50 (second compound 0.01 µM) was over 10000 nM and the IC50 (second compound 0.0316 µM) was over 10000 nM. It also gave an IC50 (second compound 0.1 µM) of over 10000 nM, an IC50 (second compound 0.316 µM) of over 10000 nM and an IC50 (second compound 1 µM) of over 10000 nM. The viability, T/C [1] was 105%, the viability, T/C [2] was 89.3% and the viability, T/C [3] was 105%. It also gave a viability, T/C [4] of 98.7%, a viability, T/C (second compound 0.00316 µM, first compound 3.16 µM) of 88.3% and a viability, T/C (second compound 0.00316 µM, first compound 10 µM) of 112%. For the same compound, the viability, T/C [5] was 96.9%, the viability, T/C [6] was 95% and the viability, T/C [7] was 83.6%. For the same compound, the viability, T/C [8] was 89.2%, the viability, T/C (second compound 0.01 µM, first compound 3.16 µM) was 90.6% and the viability, T/C (second compound 0.01 µM, first compound 10 µM) was 122%. For the same compound, the viability, T/C [9] was 94.3%, the viability, T/C [10] was 90.5% and the viability, T/C [11] was 91.2%. For the same compound, the viability, T/C [12] was 81.9%, the viability, T/C (second compound 0.0316 µM, first compound 3.16 µM) was 86.4% and the viability, T/C (second compound 0.0316 µM, first compound 10 µM) was 103%. The viability, T/C [13] was 85.8%, the viability, T/C [14] was 81.4% and the viability, T/C [15] was 89.7%. It also gave a viability, T/C [16] of 86.1%, a viability, T/C (second compound 0.1 µM, first compound 3.16 µM) of 80% and a viability, T/C (second compound 0.1 µM, first compound 10 µM) of 92.2%. It also gave a viability, T/C [17] of 80%, a viability, T/C [18] of 84.2% and a viability, T/C [19] of 107%. The viability, T/C [20] was 69.4%, the viability, T/C (second compound 0.316 µM, first compound 3.16 µM) was 79.6% and the viability, T/C (second compound 0.316 µM, first compound 10 µM) was 90.8%. The viability, T/C [21] was 68.4%, the viability, T/C [22] was 79.8% and the viability, T/C [23] was 79.1%. The viability, T/C [24] was 84.7%, the viability, T/C (second compound 1 µM, first compound 3.16 µM) was 65.5% and the viability, T/C (second compound 1 µM, first compound 10 µM) was 69.1%.

COc1c(OCCCN2CCOCC2)ccc2c3n(c(=NC(=O)c4cnc(N)nc4)nc12)CCN3 + CNC(C)C(=O)NC1CN(S(=O)(=O)c2cccc(S(=O)(=O)N3CCC4CCC(C(=O)NC(c5ccccc5)c5ccccc5)N4C(=O)C(NC(=O)C(C)NC)C3)c2)CCC2CCC(C(=O)NC(c3ccccc3)c3ccccc3)N2C1=O gave an IC50 (second compound 0.00316 µM) of over 1000 nM, an IC50 (second compound 0.01 µM) of over 1000 nM and an IC50 (second compound 0.0316 µM) of 915 nM. The IC50 (second compound 0.1 µM) was 730 nM, the IC50 (second compound 0.316 µM) was 563 nM and the IC50 (second compound 1 µM) was 326 nM. For the same compound, the viability, T/C [25] was 110%, the viability, T/C [26] was 94.7% and the viability, T/C [1] was 131%. It also gave a viability, T/C [2] of 137%, a viability, T/C [3] of 126% and a viability, T/C [4] of 73.1%. The viability, T/C [27] was 99.5%, the viability, T/C [28] was 105% and the viability, T/C [5] was 113%. For the same compound, the viability, T/C [6] was 149%, the viability, T/C [7] was 129% and the viability, T/C [8] was 64.4%. For the same compound, the viability, T/C [29] was 99.6%, the viability, T/C [30] was 92.7% and the viability, T/C [9] was 107%. It also gave a viability, T/C [10] of 133%, a viability, T/C [11] of 135% and a viability, T/C [12] of 44.7%. It also gave a viability, T/C [31] of 82.5%, a viability, T/C [32] of 92.9% and a viability, T/C [13] of 101%. For the same compound, the viability, T/C [14] was 115%, the viability, T/C [15] was 105% and the viability, T/C [16] was 31.6%. The viability, T/C [33] was 87.5%, the viability, T/C [34] was 77.3% and the viability, T/C [17] was 98.7%. It also gave a viability, T/C [18] of 113%, a viability, T/C [19] of 84.1% and a viability, T/C [20] of 16%. The viability, T/C [35] was 92.9%, the viability, T/C [36] was 90.4% and the viability, T/C [21] was 111%. For the same compound, the viability, T/C [22] was 92.5%, the viability, T/C [23] was 51.3% and the viability, T/C [24] was 4.42%.

Compound NC1CCC(NC2CC2c2ccccc2)CC1 (stereo unspecified) + CNC(C)C(=O)NC1CN(S(=O)(=O)c2cccc(S(=O)(=O)N3CCC4CCC(C(=O)NC(c5ccccc5)c5ccccc5)N4C(=O)C(NC(=O)C(C)NC)C3)c2)CCC2CCC(C(=O)NC(c3ccccc3)c3ccccc3)N2C1=O has an IC50 (second compound 0.00316 µM) of over 100 nM, an IC50 (second compound 0.01 µM) of over 100 nM and an IC50 (second compound 0.0316 µM) of over 100 nM. It also gave an IC50 (second compound 0.1 µM) of over 100 nM, an IC50 (second compound 0.316 µM) of over 100 nM and an IC50 (second compound 1 µM) of over 100 nM. For the same compound, the viability, T/C (second compound 0.00316 µM, first compound 0.000316 µM) was 117%, the viability, T/C (second compound 0.00316 µM, first compound 0.001 µM) was 106% and the viability, T/C [25] was 102%. For the same compound, the viability, T/C [26] was 90.9%, the viability, T/C [1] was 99.4% and the viability, T/C [2] was 87.1%. The viability, T/C (second compound 0.01 µM, first compound 0.000316 µM) was 118%, the viability, T/C (second compound 0.01 µM, first compound 0.001 µM) was 87.7% and the viability, T/C [27] was 119%. It also gave a viability, T/C [28] of 91.5%, a viability, T/C [5] of 86.7% and a viability, T/C [6] of 91.7%. For the same compound, the viability, T/C (second compound 0.0316 µM, first compound 0.000316 µM) was 93.9%, the viability, T/C (second compound 0.0316 µM, first compound 0.001 µM) was 112% and the viability, T/C [29] was 96.3%. It also gave a viability, T/C [30] of 98.5%, a viability, T/C [9] of 101% and a viability, T/C [10] of 107%. For the same compound, the viability, T/C (second compound 0.1 µM, first compound 0.000316 µM) was 79.2%, the viability, T/C (second compound 0.1 µM, first compound 0.001 µM) was 79.2% and the viability, T/C [31] was 93.3%. It also gave a viability, T/C [32] of 93%, a viability, T/C [13] of 88.4% and a viability, T/C [14] of 104%. It also gave a viability, T/C (second compound 0.316 µM, first compound 0.000316 µM) of 78.8%, a viability, T/C (second compound 0.316 µM, first compound 0.001 µM) of 86.6% and a viability, T/C [33] of 88.2%. For the same compound, the viability, T/C [34] was 80%, the viability, T/C [17] was 82.8% and the viability, T/C [18] was 87.2%. The viability, T/C (second compound 1 µM, first compound 0.000316 µM) was 77.9%, the viability, T/C (second compound 1 µM, first compound 0.001 µM) was 79.3% and the viability, T/C [35] was 94%. It also gave a viability, T/C [36] of 74.7%, a viability, T/C [21] of 85.3% and a viability, T/C [22] of 85.7%.
